Source: PubChem BioAssay AID743424 (The Scripps Research Institute Molecular Screening Center, 2014)
Calls of active or inactive are those of the source. No rule for the calls is given here.

Molecular target: Sphingosine 1-phosphate receptor 3 (Homo sapiens) (UniProt Q99500)
Test: S1P3 receptor agonist activity, late-stage follow-up, counter-screen for S1PR3 antagonist project, cell-based, fluorescence, dose response (AID 743424)
Conditions: S1P3-expressing cells, agonist-mode fluorescence counterscreen

Sphingosine 1-phosphate receptor 3 (Homo sapiens), sequence (Q99500 whole entry, looked up): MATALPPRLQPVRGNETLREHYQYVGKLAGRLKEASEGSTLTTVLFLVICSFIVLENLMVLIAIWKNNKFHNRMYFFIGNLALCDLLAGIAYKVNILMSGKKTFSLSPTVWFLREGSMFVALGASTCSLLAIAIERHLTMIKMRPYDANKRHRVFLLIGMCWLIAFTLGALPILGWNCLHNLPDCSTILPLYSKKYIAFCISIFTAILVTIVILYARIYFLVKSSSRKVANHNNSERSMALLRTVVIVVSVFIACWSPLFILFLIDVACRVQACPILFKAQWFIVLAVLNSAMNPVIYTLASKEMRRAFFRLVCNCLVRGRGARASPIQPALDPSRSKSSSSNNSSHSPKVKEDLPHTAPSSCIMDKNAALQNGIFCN

| SMILES | EC50 |
| --- | --- |
| O=C(NC(c1ccc(Cl)cc1)c1nc(-c2ccccc2)no1)c1cccc(Br)c1 (configuration not stated) | > 50 µM (inactive) |
| O=C(NC(c1ccccc1)c1nc(-c2ccccc2)no1)c1ccc(Cl)cc1 (configuration not stated) | > 50 µM (inactive) |
| O=C(NC(c1ccc(Cl)c(Cl)c1)c1nc(-c2ccccc2)no1)c1cccc(Cl)c1 (configuration not stated) | > 50 µM (inactive) |
| Cc1ccc(C(=O)NC(c2ccccc2)c2nc(-c3ccccc3)no2)cc1 (configuration not stated) | > 50 µM (inactive) |
| O=C(NC(c1cccc(Cl)c1)c1nc(-c2ccccc2)no1)c1cccc(Cl)c1 (configuration not stated) | > 50 µM (inactive) |
| O=C(NC(c1cccc(Cl)c1)c1nc(-c2ccccc2)no1)c1ccc(Cl)c(Cl)c1 (configuration not stated) | > 50 µM (inactive) |
| O=C(NC(c1ccccc1)c1nc(-c2ccccc2)no1)c1cccc(Cl)c1 (configuration not stated) | > 50 µM (inactive) |
| O=C(NC(c1ccc(Cl)cc1)c1nc(-c2cccc(Cl)c2)no1)c1cccc(Cl)c1 (configuration not stated) | > 50 µM (inactive) |
| O=C(NC(Cc1ccccc1)c1nc(-c2ccccc2)no1)c1cccc(Cl)c1 (configuration not stated) | > 50 µM (inactive) |
| O=C(c1cccc(Cl)c1)N(CCO)C(c1ccc(Cl)c(Cl)c1)c1nc(-c2ccccc2)no1 (configuration not stated) | > 50 µM (inactive) |
| O=C(NC(c1ccccc1)c1nc(-c2ccccc2)no1)c1cccc(Cl)n1 (configuration not stated) | inactive |
| Cc1ccc(C(NC(=O)c2cccc(Cl)c2)c2nc(-c3ccccc3)no2)cc1 (configuration not stated) | > 50 µM (inactive) |
| O=C(NC(c1ccc(Cl)cc1)c1nc(-c2ccccc2)no1)c1cccc(Cl)c1 (configuration not stated) | > 50 µM (inactive) |
| CCc1ccc(C(NC(=O)c2cccc(Cl)c2)c2nc(-c3ccccc3)no2)cc1 (configuration not stated) | > 50 µM (inactive) |
| COc1ccc(C(=O)NC(c2ccccc2)c2nc(-c3ccccc3)no2)cc1 (configuration not stated) | > 50 µM (inactive) |

Next, values leading:

| EC50 | SMILES |
| --- | --- |
| > 50 µM (inactive) | O=C(NC(c1ccc(Cl)cc1)c1nc(-c2ccccc2)no1)c1ccc(Cl)c(Cl)c1 (configuration not stated) |
| > 50 µM (inactive) | O=C(NC(c1ccc(Cl)cc1)c1nc(-c2ccccc2)no1)c1ccc(Cl)c(Br)c1 (configuration not stated) |
| > 50 µM (inactive) | O=C(NC(c1nc(-c2ccccc2)no1)C1CCOCC1)c1ccc(Cl)c(Cl)c1 (configuration not stated) |
| > 50 µM (inactive) | O=C(NC(c1ccc(Cl)c(Cl)c1)c1nc(-c2ccccc2)no1)c1ccc(Cl)cc1 (configuration not stated) |
| > 50 µM (inactive) | O=C(NC(c1ccc(Br)cc1)c1nc(-c2ccccc2)no1)c1ccc(Cl)c(Cl)c1 (configuration not stated) |
| > 50 µM (inactive) | O=C(NC(c1ccc(Cl)c(Cl)c1)c1nc(-c2ccccc2)no1)c1ccccc1 (configuration not stated) |
| > 50 µM (inactive) | O=C(NC(c1ccc(Cl)cc1)c1nc(-c2ccccn2)no1)c1cccc(Cl)c1 (configuration not stated) |
| > 50 µM (inactive) | N#Cc1ccc(C(=O)NC(c2ccc(Cl)c(Cl)c2)c2nc(-c3ccccc3)no2)cc1 (configuration not stated) |
| > 50 µM (inactive) | O=C(NC(c1cccc(Cl)c1)c1nc(-c2ccccc2)no1)c1cc(Cl)cc(Cl)c1 (configuration not stated) |
| > 50 µM (inactive) | O=C(NC(c1ccc(Cl)c(Cl)c1)c1nc(-c2ccccc2)no1)c1ccc(Cl)c(Cl)c1 (configuration not stated) |
| > 50 µM (inactive) | O=C(NC(c1nc(-c2ccccc2)no1)C1CCCCC1)c1ccc(Cl)c(Cl)c1 (configuration not stated) |
| > 50 µM (inactive) | O=C(NC(c1ccccc1)c1nc(-c2ccccc2)no1)c1cccc(Br)c1 (configuration not stated) |
